The supplement of paper PMC11208160

Assay: recombinant UMI read abundance after kanamycin selection (control-corrected) (log10(CPM+1)); higher = more efficient recombination; extreme values may be limits of the assay; sequences stand for … in AGTGCAGAGAAAATCGGCCAGTTTTCTCTGCCTGCAGTCCGCATGCCGTGGGACCCCTTGGGTTCTAACCTGTTGCCTAGATTTATGCAGCGGACTGCCTTTCTCCCAAAGTGATAAACCGG…AGGTTGGTTTCACT; site = the 11-nt donor
In short: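 Under IPTG (0.07 mM) plus kanamycin, or without selection, Escherichia coli carrying a UMI-tagged donor and donor-binding-loop pair library and a target plasmid for the IS621 bridge recombinase were plated in two replicates. Recombinant UMIs were PCR-amplified across the donor–target junction and sequenced. Counts were converted to CPM, averaged over replicates, scaled by control-derived factors and reported as log10(CPM+1).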
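Also: IS621 bridge recombinase in Escherichia coli cells against a fixed T5 target plasmid.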

Sequence | recombinant UMI read abundance (log10)
TAATGAGCATGGACCGGTTTTCCCGGTAATCCGTATTTGGG (site TTATGAGCTCC) | 0.0156
TAATGCTCATGGACCGGTTTTCCCGGTAATCCGTATTTGAA (site AAATGCTCTTT) | 0.111
TAATGCTCATGGACCGGTTTTCCCGGTAATCCGTATTTGAA (site CAATGCTCTTT) | 0.61
TAATGCTCATGGACCGGTTTTCCCGGTAATCCGTATTTGAA (site GAATGCTCTTT) | 0.106
TAATGCTCATGGACCGGTTTTCCCGGTAATCCGTATTTGAA (site TAATGCTCTTT) | 1.19
TAATGTCCATGGACCGGTTTTCCCGGTAATCCGTATTTGTA (site TAAAGTCCTTA) | 0.459
TAATGTCCATGGACCGGTTTTCCCGGTAATCCGTATTTGTA (site TAACGTCCTTA) | 0.254
TAATGTCCATGGACCGGTTTTCCCGGTAATCCGTATTTGTA (site TAAGGTCCTTA) | 0.586
TAATGTCCATGGACCGGTTTTCCCGGTAATCCGTATTTGTA (site TAATGTCCTTA) | 0.766
TAATTAGCATGGACCGGTTTTCCCGGTAATCCGTATTTGGG (site TAATAAGCTCC) | 0.00264
TAATTAGCATGGACCGGTTTTCCCGGTAATCCGTATTTGGG (site TAATCAGCTCC) | 0.0055
TAATTAGCATGGACCGGTTTTCCCGGTAATCCGTATTTGGG (site TAATGAGCTCC) | 0.0311
TAATTAGCATGGACCGGTTTTCCCGGTAATCCGTATTTGGG (site TAATTAGCTCC) | 0.0073
TAATTCACATGGACCGGTTTTCCCGGTAATCCGTATTTGGG (site TAATTCACTCC) | 0.0061
TAATTGGCATGGACCGGTTTTCCCGGTAATCCGTATTTGTG (site TAATTGGCTCA) | 0.484
TAATTGGCATGGACCGGTTTTCCCGGTAATCCGTATTTGTG (site TACTTGGCTCA) | 0.0115
TAATTGGCATGGACCGGTTTTCCCGGTAATCCGTATTTGTG (site TAGTTGGCTCA) | 0.0118
TAATTGGCATGGACCGGTTTTCCCGGTAATCCGTATTTGTG (site TATTTGGCTCA) | 0.00466
TACAAGGCATGGACCGGTTTTCCCGGTAATCCGTATTTGGT (site TACAAGGCTAC) | 0.732
TACACCGCATGGACCGGTTTTCCCGGTAATCCGTATTTGTA (site TACACCGCTTA) | 1.36
TACACTTCATGGACCGGTTTTCCCGGTAATCCGTATTTGGC (site TACACTTCTGC) | 0
TACAGGCCATGGACCGGTTTTCCCGGTAATCCGTATTTGAC (site TACAGGCCTGT) | 0
TACATCTCATGGACCGGTTTTCCCGGTAATCCGTATTTGTG (site TACATCTCTCA) | 0.976
TACATGACATGGACCGGTTTTCCCGGTAATCCGTATTTGCT (site TACATGACTAG) | 2.15
TACATGACATGGACCGGTTTTCCCGGTAATCCGTATTTGCT (site TACCTGACTAG) | 0.938

Sequence | recombinant UMI read abundance (log10)
TACATGACATGGACCGGTTTTCCCGGTAATCCGTATTTGCT (site TACGTGACTAG) | 0.566
TACATGACATGGACCGGTTTTCCCGGTAATCCGTATTTGCT (site TACTTGACTAG) | 0.0568
TACCCTGCATGGACCGGTTTTCCCGGTAATCCGTATTTGCA (site TACCCTGCTTG) | 0
TACCGAACATGGACCGGTTTTCCCGGTAATCCGTATTTGGA (site TACCGAACTTC) | 0.277
TACCTTACATGGACCGGTTTTCCCGGTAATCCGTATTTGCG (site TACCTTACTCG) | 0.0203
TACGATGCATGGACCGGTTTTCCCGGTAATCCGTATTTGCT (site TACGATGCTAG) | 1.98
TACGCCACATGGACCGGTTTTCCCGGTAATCCGTATTTGAG (site TACGCCACTCT) | 0.652
TACGGTACATGGACCGGTTTTCCCGGTAATCCGTATTTGGT (site TACGGTACTAC) | 0.321
TACGTTTCATGGACCGGTTTTCCCGGTAATCCGTATTTGCC (site TACGTTTCTGG) | 1.7
TACTAATCATGGACCGGTTTTCCCGGTAATCCGTATTTGGG (site TACTAATCTCC) | 0.0128
TACTCAGCATGGACCGGTTTTCCCGGTAATCCGTATTTGGA (site TACTCAGCTTC) | 0.619
TACTCCGCATGGACCGGTTTTCCCGGTAATCCGTATTTGTC (site TACTCCGCTGA) | 2.18
TACTGACCATGGACCGGTTTTCCCGGTAATCCGTATTTGGA (site TACTGACCTTC) | 0.0192
TACTGACCATGGACCGGTTTTCCCGGTAATCCGTATTTGGG (site TACTGACCTCC) | 0.0283
TAGAATACATGGACCGGTTTTCCCGGTAATCCGTATTTGCA (site AAGAATACTTG) | 0.559
TAGAATACATGGACCGGTTTTCCCGGTAATCCGTATTTGCA (site CAGAATACTTG) | 0.572
TAGAATACATGGACCGGTTTTCCCGGTAATCCGTATTTGCA (site GAGAATACTTG) | 0.196
TAGAATACATGGACCGGTTTTCCCGGTAATCCGTATTTGCA (site TAAAATACTTG) | 0.792
TAGAATACATGGACCGGTTTTCCCGGTAATCCGTATTTGCA (site TACAATACTTG) | 0.745
TAGAATACATGGACCGGTTTTCCCGGTAATCCGTATTTGCA (site TAGAAAACTTG) | 0.00693
TAGAATACATGGACCGGTTTTCCCGGTAATCCGTATTTGCA (site TAGAACACTTG) | 0
TAGAATACATGGACCGGTTTTCCCGGTAATCCGTATTTGCA (site TAGAAGACTTG) | 0.00484
TAGAATACATGGACCGGTTTTCCCGGTAATCCGTATTTGCA (site TAGAATACTAG) | 0
TAGAATACATGGACCGGTTTTCCCGGTAATCCGTATTTGCA (site TAGAATACTCG) | 0
TAGAATACATGGACCGGTTTTCCCGGTAATCCGTATTTGCA (site TAGAATACTGG) | 0

Sequence | recombinant UMI read abundance (log10)
TAGAATACATGGACCGGTTTTCCCGGTAATCCGTATTTGCA (site TAGAATACTTA) | 0
TAGAATACATGGACCGGTTTTCCCGGTAATCCGTATTTGCA (site TAGAATACTTC) | 0.0185
TAGAATACATGGACCGGTTTTCCCGGTAATCCGTATTTGCA (site TAGAATACTTG) | 2.18
TAGAATACATGGACCGGTTTTCCCGGTAATCCGTATTTGCA (site TAGAATACTTT) | 0
TAGAATACATGGACCGGTTTTCCCGGTAATCCGTATTTGCA (site TAGAATCCTTG) | 0
TAGAATACATGGACCGGTTTTCCCGGTAATCCGTATTTGCA (site TAGAATGCTTG) | 0
TAGAATACATGGACCGGTTTTCCCGGTAATCCGTATTTGCA (site TAGAATTCTTG) | 0
TAGAATACATGGACCGGTTTTCCCGGTAATCCGTATTTGCA (site TAGACTACTTG) | 0.486
TAGAATACATGGACCGGTTTTCCCGGTAATCCGTATTTGCA (site TAGAGTACTTG) | 0.446
TAGAATACATGGACCGGTTTTCCCGGTAATCCGTATTTGCA (site TAGATTACTTG) | 0.00714
TAGAATACATGGACCGGTTTTCCCGGTAATCCGTATTTGCA (site TAGCATACTTG) | 0.783
TAGAATACATGGACCGGTTTTCCCGGTAATCCGTATTTGCA (site TAGGATACTTG) | 1.71
TAGAATACATGGACCGGTTTTCCCGGTAATCCGTATTTGCA (site TAGTATACTTG) | 1.34
TAGAATACATGGACCGGTTTTCCCGGTAATCCGTATTTGCA (site TATAATACTTG) | 0.633
TAGAATACATGGACCGGTTTTCCCGGTAATCCGTATTTGCA (site TCGAATACTTG) | 0.00888
TAGAATACATGGACCGGTTTTCCCGGTAATCCGTATTTGCA (site TGGAATACTTG) | 0
TAGAATACATGGACCGGTTTTCCCGGTAATCCGTATTTGCA (site TTGAATACTTG) | 0.27
TAGACTTCATGGACCGGTTTTCCCGGTAATCCGTATTTGGT (site TAGACTTCTAC) | 1.64
TAGACTTCATGGACCGGTTTTCCCGGTAATCCGTATTTGGT (site TAGCCTTCTAC) | 0.0272
TAGACTTCATGGACCGGTTTTCCCGGTAATCCGTATTTGGT (site TAGGCTTCTAC) | 0.329
TAGACTTCATGGACCGGTTTTCCCGGTAATCCGTATTTGGT (site TAGTCTTCTAC) | 0.175
TAGAGAACATGGACCGGTTTTCCCGGTAATCCGTATTTGAG (site TAGAGAACTCT) | 1.87
TAGAGCCCATGGACCGGTTTTCCCGGTAATCCGTATTTGCG (site TAGAGCCCTCG) | 0.457
TAGAGTCCATGGACCGGTTTTCCCGGTAATCCGTATTTGTA (site TAAAGTCCTTA) | 0.546
TAGAGTCCATGGACCGGTTTTCCCGGTAATCCGTATTTGTA (site TACAGTCCTTA) | 0.159
